Columns and labels:
[1] = system: Human immunodeficiency virus 1; assay: Antiviral activity against HIV-1 harboring RT F227L/V106A double mutant infected in human MT4 cells assessed as protection against virus-induced cytopathic effect incubated for 5 days by MTT assay; assay type: functional, organism-based; settings: Human immunodeficiency virus 1, MT4, 120 h
[2] = biological target: Human immunodeficiency virus type 1 reverse transcriptase (Human immunodeficiency virus 1, UniProt Q72547); assay: Inhibition of recombinant wild type HIV-1 Reverse transcriptase incubated for 40 mins by Pico-green reagent based fluorescence analysis
[3] = system: Human immunodeficiency virus 1; assay: Antiviral activity against HIV-1 harboring RT E138K mutant infected in human MT4 cells assessed as protection against virus-induced cytopathic effect incubated for 5 days by MTT assay; assay type: functional, organism-based; settings: Human immunodeficiency virus 1, MT4, 120 h
[4] = Metabolic stability in human liver microsomes assessed as half-life at 0.1 uM preincubated for 10 mins followed by NADPH addition and measured upto 60 mins by LC-MS/MS analysis; assay type: ADME, Microsome; settings: time < 70 min
[5] = system: Human immunodeficiency virus 1; assay: Antiviral activity against HIV-1 harboring RT K103N mutant infected in human MT4 cells assessed as protection against virus-induced cytopathic effect incubated for 5 days by MTT assay; assay type: functional, organism-based; settings: Human immunodeficiency virus 1, MT4, 120 h
[6] = system: Human immunodeficiency virus 1; assay: Antiviral activity against HIV-1 harboring RT K103N/Y181C double mutant infected in human MT4 cells assessed as protection against virus-induced cytopathic effect incubated for 5 days by MTT assay; assay type: functional, organism-based; settings: Human immunodeficiency virus 1, MT4, 120 h
[7] = Metabolic stability in rat liver microsomes assessed as half-life at 0.1 uM preincubated for 10 mins followed by NADPH addition and measured upto 60 mins by LC-MS/MS analysis; assay type: ADME, Microsome; settings: time < 70 min
[8] = system: Human immunodeficiency virus 1; assay: Antiviral activity against HIV-1 harboring RT Y181C mutant infected in human MT4 cells assessed as protection against virus-induced cytopathic effect incubated for 5 days by MTT assay; assay type: functional, organism-based; settings: Human immunodeficiency virus 1, MT4, 120 h
[9] = system: Human immunodeficiency virus 1; assay: Antiviral activity against HIV-1 harboring RT Y188L mutant infected in human MT4 cells assessed as protection against virus-induced cytopathic effect incubated for 5 days by MTT assay; assay type: functional, organism-based; settings: Human immunodeficiency virus 1, MT4, 120 h
[10] = system: Human immunodeficiency virus 1; assay: Antiviral activity against wildtype HIV-1 IIIB infected in human MT4 cells assessed as protection against virus-induced cytopathic effect incubated for 5 days by MTT assay; assay type: functional, organism-based; settings: Human immunodeficiency virus 1, IIIB, MT4, 120 h
[11] = system: Human immunodeficiency virus 1; assay: Antiviral activity against HIV-1 harboring RT L100I mutant infected in human MT4 cells assessed as protection against virus-induced cytopathic effect incubated for 5 days by MTT assay; assay type: functional, organism-based; settings: Human immunodeficiency virus 1, MT4, 120 h
[12] = Cytotoxicity against human MT4 cells assessed as reduction in cell viability measured after 5 days by MTT assay
[13] = Selectivity index, ratio of CC50 for human MT4 cells to EC50 for wild type HIV-1 IIIB infected in human MT4 cellS; settings: MT4 cells
[14] = Solubility of compound in phosphate buffer at pH 7.4 measured after 24 hrs by HPLC analysis; assay type: physicochemical
[15] = MRT (0 to t) in male Sprague-Dawley rat at 1 mg/kg, iv measured after 24 hrs by LC-MS analysis; assay type: ADME, organism-based; settings: in vivo
[16] = Tmax in male Sprague-Dawley rat at 1 mg/kg, iv measured after 24 hrs by LC-MS analysis; assay type: ADME, organism-based; settings: in vivo
[17] = Half-life in male Sprague-Dawley rat at 10 mg/kg, po measured after 24 hrs by LC-MS analysis; assay type: ADME, organism-based; settings: in vivo
[18] = Half-life in male Sprague-Dawley rat at 1 mg/kg, iv measured after 24 hrs by LC-MS analysis; assay type: ADME, organism-based; settings: in vivo
[19] = Cmax in male Sprague-Dawley rat at 1 mg/kg, iv measured after 24 hrs by LC-MS analysis; assay type: ADME, organism-based; settings: in vivo
[20] = Cmax in male Sprague-Dawley rat at 10 mg/kg, po measured after 24 hrs by LC-MS analysis; assay type: ADME, organism-based; settings: in vivo
[21] = AUC (0 to t) in male Sprague-Dawley rat at 1 mg/kg, iv measured after 24 hrs by LC-MS analysis; assay type: ADME, organism-based; settings: in vivo
[22] = Solubility of compound in phosphate buffer at pH 2.0 measured after 24 hrs by HPLC analysis; assay type: physicochemical
[23] = MRT (0 to infinity) in male Sprague-Dawley rat at 10 mg/kg, po measured after 24 hrs by LC-MS analysis; assay type: ADME, organism-based; settings: in vivo
[24] = Clearance in male Sprague-Dawley rat at 1 mg/kg, iv measured after 24 hrs by LC-MS analysis; assay type: ADME, organism-based; settings: in vivo
[25] = AUC (0 to infinity) in male Sprague-Dawley rat at 10 mg/kg, po measured after 24 hrs by LC-MS analysis; assay type: ADME, organism-based; settings: in vivo
[26] = AUC (0 to t) in male Sprague-Dawley rat at 10 mg/kg, po measured after 24 hrs by LC-MS analysis; assay type: ADME, organism-based; settings: in vivo
[27] = MRT (0 to infinity) in male Sprague-Dawley rat at 1 mg/kg, iv measured after 24 hrs by LC-MS analysis; assay type: ADME, organism-based; settings: in vivo
[28] = Oral bioavailability in male Sprague-Dawley rat at 10 mg/kg measured after 24 hrs by LC-MS analysis; assay type: ADME, organism-based; settings: in vivo
[29] = Solubility of compound in phosphate buffer at pH 7.0 measured after 24 hrs by HPLC analysis; assay type: physicochemical
[30] = Solubility of compound in Watson's distilled pure water measured after 24 hrs by HPLC analysis; assay type: physicochemical
[31] = Tmax in male Sprague-Dawley rat at 10 mg/kg, po measured after 24 hrs by LC-MS analysis; assay type: ADME, organism-based; settings: in vivo
[32] = AUC (0 to infinity) in male Sprague-Dawley rat at 1 mg/kg, iv measured after 24 hrs by LC-MS analysis; assay type: ADME, organism-based; settings: in vivo
[33] = MRT (0 to t) in male Sprague-Dawley rat at 10 mg/kg, po measured after 24 hrs by LC-MS analysis; assay type: ADME, organism-based; settings: in vivo
[34] = Metabolic stability in dog liver microsomes assessed as half-life at 0.1 uM preincubated for 10 mins followed by NADPH addition and measured upto 60 mins by LC-MS/MS analysis; assay type: ADME, Canis lupus familiaris, Microsome; settings: time < 70 min

Row | SMILES | EC50 [1] | IC50 [2] | EC50 [3] | half-life at 0.1 µM [4] | EC50 [5] | EC50 [6] | half-life at 0.1 µM [7] | EC50 [8] | EC50 [9] | EC50 [10] | EC50 [11] | selectivity ratio [13] | CC50 at 120 h ([12]; MT4 cells) | solubility at 24 h [14] | solubility at 24 h [29] | solubility at 24 h [30] | half-life at 0.1 µM [34] | further results
1 | N#Cc1ccc(Nc2nccc(Nc3c(F)cc(-c4ccncc4)cc3F)n2)cc1 | 299 nM | 31 nM | 10 nM | 0.16 h | 2 nM | 64 nM | 0.217 h | 6 nM | 57 nM | 2 nM | 4 nM | – | – | – | – | – | – | CC50 at 120 h ([12]; mt4): 6000 nM
2 | Cc1cc(-c2ccncc2)cc(C)c1Nc1nc(Nc2ccc(C#N)cc2)ncc1-c1cncc(N)c1 | 323 nM | 73 nM | 13 nM | – | 7 nM | 378 nM | – | 51 nM | 63 nM | 6 nM | 29 nM | 1050 | 6380 nM | – | – | – | – | –
3 | Cc1cc(-c2ccncc2)cc(C)c1Nc1nc(Nc2ccc(C#N)cc2)ncc1-c1cncc(Cl)c1 | 1530 nM | 197 nM | 45 nM | – | 37 nM | 982 nM | – | 78 nM | 121 nM | 8 nM | 117 nM | > 32800 | > 248000 nM | – | – | – | – | –
4 | Cc1cc(-c2ccncc2)cc(C)c1Nc1nc(Nc2ccc(C#N)cc2)ncc1-c1cn[nH]c1.Cl | – | – | – | – | – | – | – | – | – | – | – | – | – | < 1 µg/mL | < 1 µg/mL | 366 µg/mL | – | MRT last at 24 h [15]: 1.1 h; Tmax [16]: 4.8 min; half-life [17]: 2.92 h; half-life [18]: 0.84 h; Cmax [19]: 572 ng/mL; Cmax [20]: 862 ng/mL; AUC(0-t) at 24 h [21]: 600 ng·h/mL; solubility at 24 h [22]: 782 µg/mL; MRT inf [23]: 3.14 h; clearance [24]: 30.3 mL/min/kg; AUC(0-inf) [25]: 3470 ng·h/mL; AUC(0-t) at 24 h [26]: 3460 ng·h/mL; MRT inf [27]: 1.14 h; bioavailability [28]: 57.4%; Tmax [31]: 1 h; AUC(0-inf) [32]: 605 ng·h/mL; MRT last at 24 h [33]: 3.04 h
5 | Cc1cc(C#N)cc(C)c1Oc1nc(Nc2ccc(C#N)cc2)nc(N)c1Br [ETRAVIRINE] | 12 nM | – | – | 1.07 h | – | 43 nM | 0.225 h | 13 nM | 17 nM | – | 4 nM | – | > 4610 nM | < 1 µg/mL | < 1 µg/mL | < 1 µg/mL | 2.53 h | –
6 | Cc1cc(/C=C/C#N)cc(C)c1Nc1ccnc(Nc2ccc(C#N)cc2)n1 [RILPIVIRINE] | – | – | – | 0.267 h | – | – | 0.121 h | – | – | 4 nM | – | – | > 6350 nM | – | – | – | 1.32 h | –
